The numbers were not newly measured in article PMC9177108 (The Oncologist, 2022), which cites them from elsewhere.

In one data set the test system is patients with RM-NPC. The following applies: 37 recruited patients with RM-NPC; cited from earlier work.
In another data set the test system is NPC patients. The following applies: 58 NPC patients, cited from earlier work.
In data set [1] the test system is relapsed and refractory patients with NPC. Conditions: cited from earlier work.
The test system of another data set is patients with NPC. The following applies: 33 patients with NPC; cited from earlier work.
The test system of data set [2] is patients with advanced NPC. Conditions: first-line regimen; cited from earlier work.

`CNC(=O)c1ccccc1Sc1ccc2c(/C=C/c3ccccn3)n[nH]c2c1` [Axitinib]: in the data set with patients with RM-NPC, the DCR is given as 78.4, the ORR was 19%, the “median PFS” value is 5 months and the “overall survival (OS)” value is 10 months.
Turning to `CCN(CC)CCN1CCc2[nH]c(/C=C3\C(=O)Nc4ccc(F)cc43)c(C)c2C1=O` [Famitinib], in the data set with NPC patients, the ORR is reported as 6.9% and the “median PFS” value was 3.2 months. In addition, the DCR in the data set on NPC patients (at 3 months) is listed as 32.8%.
For the compound `N#CC1(c2ccc(NC(=O)c3cccnc3NCc3ccncc3)cc2)CCCC1` [apatinib], the ORR in data set [1] (51 patients (16/51), no response to first- or second-line chemotherapy) is given as 31.4%. Also, in data set [1] (51 patients), the OS was 16 months and the “median PFS” value is 9 months.
Turning to `Cc1ccc(Nc2nccc(N(C)c3ccc4c(C)n(C)nc4c3)n2)cc1S(N)(=O)=O` [pazopanib], the ORR with patients with NPC is reported as 6.1%.
For the compound cisplatin and 5-fluorouracil, in data set [2], the “median PFS” value is recorded as 11-14 months and the response rate is 66-78%.
